In PMC11597817, “Modulation of Multispecific Transporters by Uncaria tomentosa Extract and Its Major Phytoconstituents” (Pharmaceutics, 2024):
Like-named read-outs stand apart in the source and are kept apart here.

Key:
Type in all cases: cell-based
OCT1 = molecular target: T1, OCT1 (Homo sapiens, UniProt O15245); assay: Uptake inhibition assay, OCT1-overexpressing HEK293 cells; conditions: oxindole alkaloids, substrate metformin, read-out: IC50 (95% CI of IC50)
T1 construct: expressed in transfected cells; host or cells: HEK293 (lentiviral transduction; cDNA synthesised by GenScript)
T1 sequence (O15245 1-554): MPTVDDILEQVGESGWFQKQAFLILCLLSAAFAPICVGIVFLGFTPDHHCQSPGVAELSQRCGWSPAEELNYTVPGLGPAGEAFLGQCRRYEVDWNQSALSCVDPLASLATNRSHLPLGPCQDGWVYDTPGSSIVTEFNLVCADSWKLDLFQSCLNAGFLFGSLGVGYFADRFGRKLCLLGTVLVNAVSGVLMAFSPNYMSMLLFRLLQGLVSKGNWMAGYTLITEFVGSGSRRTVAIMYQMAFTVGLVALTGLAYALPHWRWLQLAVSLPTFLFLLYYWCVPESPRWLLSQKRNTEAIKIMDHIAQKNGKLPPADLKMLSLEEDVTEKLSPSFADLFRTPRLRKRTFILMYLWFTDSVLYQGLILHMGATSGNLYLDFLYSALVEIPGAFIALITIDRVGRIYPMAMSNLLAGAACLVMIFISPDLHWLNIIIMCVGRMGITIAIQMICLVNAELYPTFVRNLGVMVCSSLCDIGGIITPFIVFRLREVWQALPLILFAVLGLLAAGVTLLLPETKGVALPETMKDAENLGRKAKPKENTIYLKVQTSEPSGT
Excerpt: The human embryonic kidney 293 (HEK293) cell line was purchased from Invitrogen/ThermoFisher (Waltham, MA, USA). Madin–Darby canine kidney II (MDCKII) wild type cells were obtained from the European Collection of Authenticated Cell Cultures (ECACC catalog no. 00062107). HEK293 cells overexpressing the human uptake OATP1B1 (NCBI Reference Sequence: NM_006446.4), OATP1B3 (NM_019844), OATP2B1 (NM_007256), OATP1A2 (NM_134431), OAT1-3 (BC033682.1; NM_006672.3; BC022387), OCT1-3 (BC126364.1; NM_003058; NM_021977), OCTN1 (NM_003059.3), NTCP (NM_003049.3), MATE1 (NM_018242.3), MATE2K (NM_001099646.2), ENT4 (NM_001040661.1), SGLT2 (AJ133127.1), ASCT1/2 (NM_003038.5; NM_005628.3), LAT1/2 (NM_003486.6; NM_012244.4), and THTR1/2 (NM_006996; NM_025243) and mock and human efflux BCRP (NM_004827.2), BSEP (NM_003742.2), MDR1 (NM_000927.4), and MRP1-5 (NM_004996; NM_000392.4; BC137347.1; NM_005845.4; NM_005688.2) transporters as well as MDCKII overexpressing human ENT1/2 (NM_001078177; NM_001532.2) and URAT1 (BC053348) transporters were created by lentiviral transduction. The cDNA encoding respective transporters were synthetized and cloned by GenScript (Piscataway, NJ, USA). The production of lentivirus supernatants, the transduction of the cells, cloning, functional characterization, and validation were performed by Charles River Laboratories Hungary Kft. (Budapest, Hungary).
Cell cultures were maintained in Dulbecco’s modified Eagle’s medium (DMEM), 4.5 g/L of glucose, supplemented with GlutaMAX^TM, 2.5 v/v % penicillin/streptomycin, and 10% fetal bovine serum (FBS) at 37 °C, 5% CO2, and 90% relative humidity. The medium was replaced two or three times per week; cells were harvested using TrypLE™ Express (ThermoFisher) at 80 to 90% confluence and passaged or seeded. HEK293 cells of passage < 12 (from thawing) and MDCKII cells of passage < 18 were seeded at a density of 1 × 10^5 cells/well onto poly-D-lysine-coated or -non-coated 96-well plates and incubated for 18–22 h prior to inhibition assays.
(§1) Plated cells were preincubated with a transport buffer (HBSS) containing 30 or 150 µg/mL of UT extract or 100 µM of isopteropodine, mitraphylline, or uncarine D for 15 min at an appropriate temperature. […] For radiolabeled substrates, accumulation was measured by liquid scintillation counting (MicroBeta Scintillation Counter, PerkinElmer).
(§2) The transporter-mediated uptake and ATP-dependent transport were determined by subtracting the activity of the control cell/transporter abundant-membrane in the presence of AMP from the activity of the transporter-overexpressing cell/transporter-abundant membrane in the presence of ATP. The relative transporter-specific accumulation was expressed as the percent of DMSO activity. […] Confidence intervals (CIs) of 95% were also determined. […]

OCTN1 = molecular target: T2, OCTN1 (Homo sapiens, UniProt Q9H015); assay: Uptake inhibition assay, OCTN1-overexpressing HEK293 cells; conditions: in the presence of the alkaloid (100 µM, Figure 3)
T2 construct: expressed in transfected cells; host or cells: HEK293 (lentiviral transduction; cDNA synthesised by GenScript)
Experimental: (§3) The human embryonic kidney 293 (HEK293) cell line was purchased from Invitrogen/ThermoFisher (Waltham, MA, USA). Madin–Darby canine kidney II (MDCKII) wild type cells were obtained from the European Collection of Authenticated Cell Cultures (ECACC catalog no. 00062107). […]
as §1, §2

OATP1A2 = molecular target: T3, OATP1A2 (Homo sapiens, UniProt P46721); assay: Uptake inhibition assay, OATP1A2-overexpressing HEK293 cells; conditions: oxindole alkaloids; substrate E3S; read-out: IC50 (95% CI of IC50)
T3 construct: expressed in transfected cells; host or cells: HEK293 (lentiviral transduction; cDNA synthesised by GenScript)
Experimental: as §3, §1, §2

OCT2 = molecular target: T4, OCT2 (Homo sapiens, UniProt O15244); assay: Uptake inhibition assay, OCT2-overexpressing HEK293 cells; conditions: oxindole alkaloids; substrate metformin; read-out: IC50 (95% CI of IC50)
T4 construct: expressed in transfected cells; host or cells: HEK293 (lentiviral transduction; cDNA synthesised by GenScript)
Experimental: as §3, §1, §2

OATP1B3 = molecular target: T5, OATP1B3 (Homo sapiens, UniProt Q9NPD5); assay: Uptake inhibition assay, OATP1B3-overexpressing HEK293 cells; conditions: oxindole alkaloids, substrate CCK-8, read-out: IC50 (95% CI of IC50)
T5 construct: expressed in transfected cells; host or cells: HEK293 (lentiviral transduction; cDNA synthesised by GenScript)
Experimental: as §3, §1, §2

OAT1 = molecular target: T6, OAT1 (Homo sapiens, UniProt Q4U2R8); assay: Uptake inhibition assay, OAT1-overexpressing HEK293 cells; conditions: at 100 µM
T6 construct: expressed in transfected cells; host or cells: HEK293 (lentiviral transduction; cDNA synthesised by GenScript)
Experimental: as §3, §1, §2

T5 sequence (Q9NPD5 whole entry): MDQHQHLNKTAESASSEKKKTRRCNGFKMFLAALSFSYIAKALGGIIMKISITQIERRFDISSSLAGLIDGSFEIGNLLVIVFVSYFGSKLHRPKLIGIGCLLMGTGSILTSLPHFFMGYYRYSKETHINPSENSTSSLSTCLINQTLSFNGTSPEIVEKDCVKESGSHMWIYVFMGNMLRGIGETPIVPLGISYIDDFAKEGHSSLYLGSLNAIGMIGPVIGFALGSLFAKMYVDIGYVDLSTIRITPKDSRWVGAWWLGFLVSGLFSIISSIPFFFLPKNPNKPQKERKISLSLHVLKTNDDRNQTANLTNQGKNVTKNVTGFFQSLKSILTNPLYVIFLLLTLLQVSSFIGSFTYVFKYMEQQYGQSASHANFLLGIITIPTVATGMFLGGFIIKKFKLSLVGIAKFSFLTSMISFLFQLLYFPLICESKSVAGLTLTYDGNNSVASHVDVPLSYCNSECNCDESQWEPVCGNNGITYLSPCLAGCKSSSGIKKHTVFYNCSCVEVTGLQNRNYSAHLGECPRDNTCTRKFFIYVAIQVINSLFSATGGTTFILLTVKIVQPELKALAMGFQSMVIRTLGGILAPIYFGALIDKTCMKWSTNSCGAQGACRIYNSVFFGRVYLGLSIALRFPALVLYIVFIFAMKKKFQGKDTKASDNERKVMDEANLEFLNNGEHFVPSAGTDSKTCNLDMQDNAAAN
T6 sequence (Q4U2R8 whole entry): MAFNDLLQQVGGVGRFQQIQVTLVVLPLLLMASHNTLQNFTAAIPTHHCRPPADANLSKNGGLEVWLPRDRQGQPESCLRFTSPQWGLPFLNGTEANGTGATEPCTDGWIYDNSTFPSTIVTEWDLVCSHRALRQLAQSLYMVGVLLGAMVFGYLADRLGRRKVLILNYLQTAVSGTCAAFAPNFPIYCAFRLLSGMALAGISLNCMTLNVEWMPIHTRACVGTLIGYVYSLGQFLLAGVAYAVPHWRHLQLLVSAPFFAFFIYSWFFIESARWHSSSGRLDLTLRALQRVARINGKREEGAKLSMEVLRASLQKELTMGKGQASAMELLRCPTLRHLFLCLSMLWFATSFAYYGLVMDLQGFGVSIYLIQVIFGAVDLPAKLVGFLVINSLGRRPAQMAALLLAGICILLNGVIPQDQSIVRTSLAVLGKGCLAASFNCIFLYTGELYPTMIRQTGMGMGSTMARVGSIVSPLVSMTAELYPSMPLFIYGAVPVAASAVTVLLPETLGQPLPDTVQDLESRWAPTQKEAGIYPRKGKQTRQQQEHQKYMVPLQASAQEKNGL
T3 sequence (P46721 whole entry): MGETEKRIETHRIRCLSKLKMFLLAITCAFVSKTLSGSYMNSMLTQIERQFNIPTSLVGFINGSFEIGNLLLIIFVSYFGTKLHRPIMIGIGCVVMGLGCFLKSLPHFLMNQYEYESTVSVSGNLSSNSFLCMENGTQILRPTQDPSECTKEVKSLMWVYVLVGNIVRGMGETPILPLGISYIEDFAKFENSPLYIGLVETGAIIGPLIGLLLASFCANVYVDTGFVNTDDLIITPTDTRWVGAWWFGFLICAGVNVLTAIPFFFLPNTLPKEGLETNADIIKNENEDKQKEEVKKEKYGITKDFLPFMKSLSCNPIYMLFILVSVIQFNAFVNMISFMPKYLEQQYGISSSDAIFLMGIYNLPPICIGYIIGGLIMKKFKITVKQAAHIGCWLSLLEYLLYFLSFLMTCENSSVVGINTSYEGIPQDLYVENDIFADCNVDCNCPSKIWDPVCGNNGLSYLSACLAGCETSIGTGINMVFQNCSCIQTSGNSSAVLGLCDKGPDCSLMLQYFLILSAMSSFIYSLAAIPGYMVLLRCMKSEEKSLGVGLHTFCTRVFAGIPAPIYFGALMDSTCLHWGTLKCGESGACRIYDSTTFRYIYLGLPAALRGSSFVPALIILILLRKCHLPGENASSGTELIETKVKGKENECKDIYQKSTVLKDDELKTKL
T4 sequence (O15244 whole entry): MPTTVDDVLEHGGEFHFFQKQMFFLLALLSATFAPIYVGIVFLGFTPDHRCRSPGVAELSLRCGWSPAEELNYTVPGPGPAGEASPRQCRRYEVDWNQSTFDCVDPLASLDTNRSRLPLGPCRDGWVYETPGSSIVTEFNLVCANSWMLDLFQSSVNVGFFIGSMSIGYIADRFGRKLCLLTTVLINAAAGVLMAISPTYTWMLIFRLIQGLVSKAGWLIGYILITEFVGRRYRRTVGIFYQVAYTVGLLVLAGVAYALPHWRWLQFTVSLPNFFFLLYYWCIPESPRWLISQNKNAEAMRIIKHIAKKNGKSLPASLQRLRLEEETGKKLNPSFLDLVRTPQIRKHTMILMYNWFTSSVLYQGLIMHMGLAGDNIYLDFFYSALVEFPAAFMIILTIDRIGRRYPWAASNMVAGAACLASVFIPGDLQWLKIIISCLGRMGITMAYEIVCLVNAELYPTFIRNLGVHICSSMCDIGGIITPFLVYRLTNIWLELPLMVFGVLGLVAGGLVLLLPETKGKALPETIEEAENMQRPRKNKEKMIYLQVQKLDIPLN
T2 sequence (Q9H015 whole entry): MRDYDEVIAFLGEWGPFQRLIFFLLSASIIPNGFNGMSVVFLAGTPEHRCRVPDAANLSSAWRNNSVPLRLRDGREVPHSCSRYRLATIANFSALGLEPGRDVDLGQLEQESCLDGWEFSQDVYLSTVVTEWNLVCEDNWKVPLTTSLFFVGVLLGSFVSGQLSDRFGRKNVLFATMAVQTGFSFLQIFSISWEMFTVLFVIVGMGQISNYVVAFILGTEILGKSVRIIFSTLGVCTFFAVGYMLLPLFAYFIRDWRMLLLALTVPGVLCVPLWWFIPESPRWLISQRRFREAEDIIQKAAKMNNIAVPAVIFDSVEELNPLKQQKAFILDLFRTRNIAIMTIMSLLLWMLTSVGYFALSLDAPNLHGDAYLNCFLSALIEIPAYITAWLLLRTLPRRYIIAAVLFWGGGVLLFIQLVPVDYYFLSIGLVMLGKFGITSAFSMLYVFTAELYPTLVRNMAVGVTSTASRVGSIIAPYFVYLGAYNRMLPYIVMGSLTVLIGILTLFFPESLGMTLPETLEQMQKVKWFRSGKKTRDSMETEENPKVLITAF

SMILES	IC50 (OCT1; listed as Mitraphylline) [µM]	IC50 (OCT1) [µM]	transporter-mediated substrate accumulation (OCTN1)	IC50 (OCT1; listed as Isopteropodine) [µM]	IC50 (OATP1A2) [µM]	IC50 (OCT2) [µM]	IC50 (OATP1B3; listed as Isopteropodine) [µM]	IC50 (OATP1B3) [µM]	decrease of transporter-mediated transport (OAT1)
COC(=O)C1=CO[C@@H](C)[C@H]2CN3CC[C@]4(C(=O)Nc5ccccc54)[C@@H]3C[C@H]12 [mitraphylline]	7.05	7.1	below 50%	–	–	–	–	–	–
COC(=O)C1=CO[C@@H](C)[C@@H]2CN3CC[C@@]4(C(=O)Nc5ccccc54)[C@@H]3C[C@H]12 [isopteropodine]	–	2.8	–	2.81	36.1	16.1	24.6	24.6	around 50%
